IC50 data for 52 compounds are collected here from US10710986B2, “PD-1/PD-L1 inhibitors” (Gilead Sciences, Inc., priority 2018, dated 2020).

Each structure is given as a SMILES string.

In the test the target is PD-1/PD-L1 (Homo sapiens (Human), UniProt Q9NZQ7). Kind of test: PD-1/PD-L1 biochemical protein-protein interaction assay (ALPHA). As to conditions: 0.3 nM His tagged PD-L1, 2.5 nM biotinylated Fc-PD-1, 60 minutes at 25° C., read-out: IC50 PD-L1-PD1.
Chain of PD-1/PD-L1 (Q9NZQ7 19-238): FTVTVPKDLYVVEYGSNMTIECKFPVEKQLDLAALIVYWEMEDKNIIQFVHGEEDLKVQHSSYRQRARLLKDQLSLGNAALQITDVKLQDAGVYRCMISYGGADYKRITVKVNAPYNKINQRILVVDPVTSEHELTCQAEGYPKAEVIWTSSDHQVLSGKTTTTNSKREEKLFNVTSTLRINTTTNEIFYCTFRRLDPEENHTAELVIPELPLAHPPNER
Consider `COc1nc(-c2cccc(-c3cccc(-c4cnc(CNC[C@@H]5CCC(=O)N5)c(OC)n4)c3Cl)c2Cl)cnc1CNCC1OCCO1` [compound 433], for which the IC50 was 0.259 nM. As for `COc1nc(-c2cccc(-c3cccc(-c4cnc(CNCC[C@@H]5CCC(=O)N5)c(OC)n4)c3Cl)c2Cl)cnc1CNCC[C@@H]1CCC(=O)N1` [compound 434], the IC50 was 0.064 nM. As for `COc1nc(-c2cccc(-c3cccc(-c4cnc(CNC[C@@H]5CCC(=O)N5)c(OC)n4)c3Cl)c2Cl)cnc1CNC[C@@H]1CNC(=O)C1` [compound 435], the IC50 came to 0.064 nM. For `COc1nc(-c2cccc(-c3cccc(-c4cnc(CN)c(OC)n4)c3Cl)c2Cl)ccc1CN` [compound 436] the value was 5.46 nM; for `COc1nc(-c2cccc(-c3cccc(-c4cnc(CN5CC6(CNC(=O)C6)C5)c(OC)n4)c3Cl)c2Cl)ccc1CN1CC2(CNC(=O)C2)C1` [compound 437], 0.086 nM; for `COc1nc(-c2cccc(-c3cccc(-c4cnc(CN5CC(OC)C5)c(OC)n4)c3Cl)c2Cl)ccc1CN1CC(OC)C1` [compound 438, 5-(2,2′-dichloro-3′-(6-methoxy-5-((3-methoxyazetidin-1-yl)methyl)pyridin-2-yl)-[1,1′-biphenyl]-3-yl)-3-methoxy-2-((3-methoxyazetidin-1-yl)methyl)pyrazine], 1.34 nM. For `COc1nc(-c2cccc(-c3cccc(-c4cnc(CN5CC(O)C5)c(OC)n4)c3Cl)c2Cl)ccc1CN1CC(O)C1` [compound 439] the value was 0.646 nM; for `COc1nc(-c2cccc(-c3cccc(-c4cnc(CNC[C@@H]5CCC(=O)N5)cn4)c3Cl)c2Cl)ccc1CNC[C@@H]1CCC(=O)N1` [compound 440], 1.87 nM. Turning to `COc1nc(-c2cccc(-c3cccc(-c4cnc(CN5CCC(c6cn[nH]c6)C5)c(OC)n4)c3Cl)c2Cl)cnc1CNC[C@@H]1CCC(=O)N1` (stereo partly shown) [compound 441], the concentration for half-maximal inhibition (IC50) was determined as 0.064 nM. For `COc1nc(-c2cccc(-c3cccc(-c4cnc(CN5CCC(C)(CO)C5)c(OC)n4)c3Cl)c2Cl)cnc1CNC[C@@H]1CCC(=O)N1` (stereo partly shown) [compound 442] the value was 0.146 nM; for `COc1nc(-c2cccc(-c3cccc(-c4cnc(CN5CCC(C)(OC)C5)c(OC)n4)c3Cl)c2Cl)cnc1CNC[C@@H]1CCC(=O)N1` (stereo partly shown) [compound 443], 0.246 nM.

Regarding `COc1nc(-c2cccc(-c3cccc(-c4cnc(CN5CC6(CNC(=O)C6)C5)c(OC)n4)c3Cl)c2Cl)cnc1CN1CC(C)(O)C1` [compound 444], the IC50 was found to be 0.074 nM.

On to `COc1nc(-c2cccc(-c3cccc(-c4cnc(CN5CC6(CCC(=O)N6)C5)c(OC)n4)c3Cl)c2Cl)cnc1CN1CC(C)(O)C1` [compound 445], for which the IC50 is 0.069 nM. As to `COc1nc(-c2cccc(-c3cccc(-c4cnc(CN5CC(C)(O)C5)c(OC)n4)c3Cl)c2Cl)cnc1CNC[C@H]1CCC(=O)N1` [compound 446], the IC50 amounted to 0.138 nM. For `COc1nc(-c2cccc(-c3cccc(-c4cnc(CN5CC6(C5)CN(C(C)=O)C6)c(OC)n4)c3Cl)c2Cl)cnc1CN1CC(C)(O)C1` [compound 447] the value was 0.064 nM; for `COc1nc(-c2cccc(-c3cccc(-c4cnc(CN5CC(C)(O)C5)c(OC)n4)c3Cl)c2Cl)cnc1CN1CC[C@@H](CO)C1` [compound 448], 0.064 nM. In the case of `COc1nc(-c2cccc(-c3cccc(-c4cnc(CN5CC(C)(O)C5)c(OC)n4)c3Cl)c2Cl)cnc1CNCCO` [compound 449], the IC50 came out at 0.285 nM. For `COc1nc(-c2cccc(-c3cccc(-c4cnc5c(CN6CC7(CCC(=O)N7)C6)cn(C)c5c4)c3Cl)c2Cl)cnc1CN1CC2(CCC(=O)N2)C1` [compound 450] the value was 0.064 nM; for `COc1nc(-c2cccc(-c3cccc(-c4cnc5c(CN6CC7(C6)CN(C(C)=O)C7)cn(C)c5c4)c3Cl)c2Cl)cnc1CN1CC2(C1)CN(C(C)=O)C2` [compound 451], 0.101 nM.

For `CCC(=O)NC1CCN(Cc2ncc(-c3cccc(-c4cccc(-c5cnc(CNC[C@@H]6CCC(=O)N6)c(OC)n5)c4Cl)c3Cl)nc2OC)C1` (stereo partly shown) [compound 452], the IC50 worked out at 0.086 nM. For `COc1nc(-c2cccc(-c3cccc(-c4cnc(CN5CCCC5(C)CO)c(OC)n4)c3Cl)c2Cl)cnc1CNC[C@@H]1CCC(=O)N1` (stereo partly shown) [compound 453] the value was 0.139 nM. For `COc1nc(-c2cccc(-c3cccc(-c4cnc(CNCCOC(N)=O)c(OC)n4)c3Cl)c2Cl)cnc1CNCCOC(N)=O` [compound 454] the value was 0.064 nM; for `COc1nc(-c2cccc(-c3cccc(-c4cnc(CNCc5cnn(CCO)c5)c(OC)n4)c3Cl)c2Cl)cnc1CNCc1cnn(CCO)c1` [compound 455], 0.145 nM. For `COc1nc(-c2cccc(-c3cccc(-c4cnc(CNCc5cn[nH]c5)c(OC)n4)c3Cl)c2Cl)cnc1CNCc1cn[nH]c1` [compound 456] the value was 0.186 nM; for `COc1nc(-c2cccc(-c3cccc(-c4cnc(CN5CCC([C@H](C)O)CC5)c(OC)n4)c3Cl)c2Cl)cnc1CNC[C@@H]1CCC(=O)N1` [compound 457], 0.172 nM; for `COc1nc(-c2cccc(-c3cccc(-c4cnc(CN[C@H]5CC[C@@H](C#N)C5)c(OC)n4)c3Cl)c2Cl)cnc1CNC[C@@H]1CCC(=O)N1` [compound 458], 0.087 nM. In the case of `COc1nc(-c2cccc(-c3cccc(-c4cnc(CN(C)C[C@H]5C[C@H](O)C5)c(OC)n4)c3Cl)c2Cl)cnc1CNC[C@@H]1CCC(=O)N1` [compound 459], the IC50 amounted to 0.344 nM.

In the case of `COCC1(CO)CCN(Cc2ncc(-c3cccc(-c4cccc(-c5cnc(CN6CCC(CO)(COC)C6)c(OC)n5)c4Cl)c3Cl)nc2OC)C1` (stereo not shown) [compound 460], the IC50 was 0.157 nM.

On to `COc1nc(-c2cccc(-c3cccc(-c4cnc(CNC[C@@H]5CCC(=O)N5)c(OC)n4)c3Cl)c2Cl)cnc1CNCCc1nnc[nH]1` [compound 461], for which the half-maximal inhibitory concentration (IC50) was 0.159 nM. For `COc1nc(-c2cccc(-c3cccc(-c4cnc(CN5CCC(c6nnc[nH]6)C5)c(OC)n4)c3Cl)c2Cl)cnc1CNC[C@@H]1CCC(=O)N1` (stereo partly shown) [compound 462] the value was 0.346 nM; for `COCC1(CO)CCN(Cc2ncc(-c3cccc(-c4cccc(-c5cnc(CNC[C@@H]6CCC(=O)N6)c(OC)n5)c4Cl)c3Cl)nc2OC)C1` (stereo partly shown) [compound 463], 0.076 nM; for `COc1nc(-c2cccc(-c3cccc(-c4cnc(CN[C@H]5C[C@@H](C(N)=O)C5)c(OC)n4)c3Cl)c2Cl)cnc1CNC[C@@H]1CCC(=O)N1` [compound 464], 0.11 nM. With `COc1nc(-c2cccc(-c3cccc(-c4cnc(CN[C@H]5C[C@H](C(N)=O)C5)c(OC)n4)c3Cl)c2Cl)cnc1CNC[C@@H]1CCC(=O)N1` [compound 465], the IC50 amounted to 0.158 nM. In the case of `COc1nc(-c2cccc(-c3cccc(-c4cnc(CNC5CCN(C(N)=O)CC5)c(OC)n4)c3Cl)c2Cl)cnc1CNC1CCN(C(N)=O)CC1` [compound 466], the IC50 stood at 0.073 nM. For `COc1nc(-c2cccc(-c3cccc(-c4cnc(CNCC5CCN(C(N)=O)C5)c(OC)n4)c3Cl)c2Cl)cnc1CNCC1CCN(C(N)=O)C1` (stereo not shown) [compound 467] the value was 0.146 nM; for `CNC(=O)C1CCN(Cc2ncc(-c3cccc(-c4cccc(-c5cnc(CC6CCN(C(=O)NC)C6)c(OC)n5)c4Cl)c3Cl)nc2OC)C1` (stereo not shown) [compound 468], 0.123 nM; for `COc1nc(-c2cccc(-c3cccc(-c4cnc(CN[C@@H]5CCC5C)c(OC)n4)c3Cl)c2Cl)cnc1CNC[C@@H]1CCC(=O)N1` (stereo partly shown) [compound 469], 0.26 nM.

For `COc1nc(-c2cccc(-c3cccc(-c4cnc(CNC5CCN(C(N)=O)CC5)c(OC)n4)c3Cl)c2Cl)cnc1CNC[C@@H]1CCC(=O)N1` [compound 470], the IC50 worked out at 0.094 nM. For `COc1nc(-c2cccc(-c3cccc(-c4cnc(CNC[C@@H]5CCC(=O)N5)c(OC)n4)c3Cl)c2Cl)cnc1CNCC1CCN(C(N)=O)C1` (stereo partly shown) [compound 471] the value was 0.119 nM; for `CNC(=O)C1CCN(Cc2ncc(-c3cccc(-c4cccc(-c5cnc(CNC[C@@H]6CCC(=O)N6)c(OC)n5)c4Cl)c3Cl)nc2OC)C1` (stereo partly shown) [compound 472], 0.066 nM; for `COc1nc(-c2cccc(-c3cccc(-c4cnc(CN[C@@H]5CCC(C(N)=O)C5)c(OC)n4)c3Cl)c2Cl)cnc1CNC[C@@H]1CCC(=O)N1` (stereo partly shown) [compound 473], 0.093 nM. For `COc1nc(-c2cccc(-c3cccc(-c4cnc(CN5C6COCC5C6)c(OC)n4)c3Cl)c2Cl)cnc1CN1C2COCC1C2` [compound 474] the value was 0.219 nM. For `COc1nc(-c2cccc(-c3cccc(-c4cnc(CNC[C@H]5CNC(=O)C5)c(OC)n4)c3Cl)c2Cl)cnc1CNC[C@H]1CNC(=O)C1` [compound 475] the value was 0.162 nM; for `COc1nc(-c2cccc(-c3cccc(-c4cnc(CNC[C@H]5CCC[C@@H]5O)c(OC)n4)c3Cl)c2Cl)cnc1CNC[C@H]1CCC[C@@H]1O` [compound 476], 0.622 nM. For `COc1nc(-c2cccc(-c3cccc(-c4cnc(CN5CC6CC5(CO)C6)c(OC)n4)c3Cl)c2Cl)cnc1CN1CC2CC1(CO)C2` [compound 477], the IC50 came to 0.246 nM. Take `COc1nc(-c2cccc(-c3cccc(-c4cnc(CN5CC(C(C)(C)O)C5)c(OC)n4)c3Cl)c2Cl)cnc1CN1CC(C(C)(C)O)C1` [compound 478]: the IC50 stood at 0.064 nM. For `COc1nc(-c2cccc(-c3cccc(-c4cnc(CNC[C@@H]5CNC(=O)C5)c(OC)n4)c3Cl)c2Cl)cnc1CNC[C@@H]1CNC(=O)C1` [compound 480] the value was 0.064 nM; for `COc1nc(-c2cccc(-c3cccc(-c4cnc(CNC[C@@H]5CCC(=O)N5)c(OC)n4)c3Cl)c2Cl)cnc1CNC[C@H]1CNC(=O)C1` [compound 481], 0.227 nM. On to `COc1nc(-c2cccc(-c3cccc(-c4cnc(CN5CC[C@]6(O)C[C@@H]6C5)c(OC)n4)c3Cl)c2Cl)cnc1CNC[C@@H]1CCC(=O)N1` [compound 482], for which the IC50 is 0.108 nM. With `COc1nc(-c2cccc(-c3cccc(-c4cnc(CN5CCCC5C(C)(C)O)c(OC)n4)c3Cl)c2Cl)cnc1CNC[C@@H]1CCC(=O)N1` (stereo partly shown) [compound 483], the IC50 came out at 0.341 nM.

Take `COc1nc(-c2cccc(-c3cccc(-c4cnc(CN5CC(C(C)(C)O)C5)c(OC)n4)c3Cl)c2Cl)cnc1CNC[C@@H]1CCC(=O)N1` [compound 484]: the IC50 was 0.122 nM. For `COc1nc(-c2cccc(-c3cccc(-c4cnc(CN5C6COCC5C6)c(OC)n4)c3Cl)c2Cl)cnc1CNC[C@@H]1CCC(=O)N1` [compound 485] the value was 0.229 nM.
